In paper PMC8870237, “Improved Multimodal Tumor Necrosis Imaging with IRDye800CW-DOTA Conjugated to an Albumin-Binding Domain” (Cancers, 2022):
Entries after “also recorded” stand apart in the source; their conditions may differ.

Legend:
[1] = n-octanol/PBS distribution coefficient (LogD7.4); format: physicochemical; details: LogD7.4, indium-111 labeled material, triplicates
Protocol: The [^111In]1, [^111In]2, and [^111In]3 were labeled at a molar activity of 10 MBq/nmol and 100 kBq was added to n-octanol (500 µL) and PBS (500 µL). After vigorous vortexing, the vial was centrifuged at 16.1 × 1000 g for 3 min. The octanol phase was carefully pipetted into a new vial and both layers were centrifuged again. From both the organic and the aqueous layers, samples (10 µL) were taken out and counted for activity on a γ-counter. LogD values were calculated as follows: Log ([NACA]n-octanol/[NACA]PBS). These experiments were performed as triplicates.

[2] = In vitro protein binding in mouse serum (ultrafiltration); format: in vitro ADME; details: 37 °C, 30 min, indium-111 labeled material
Protocol: Protein binding of the NACAs was determined as reported elsewhere. The NACAs were labeled with indium-111 (50 MBq/nmol), added to mouse serum (1 MBq/500 µL), and incubated at 37 °C for 30 min. Four portions of 10 µL were taken and counted on a γ-counter. The remaining serum was transferred to a centifree ultrafiltration device (4104 centrifugal filter units; Millipore, 30 kDa nominal molecular weight limit, methylcellulose micro partition membranes equilibrated once with 5% v/v Tween-80 in phosphate-buffered saline (PBS) and then trice with PBS) and centrifuged at 7.0 × 1000 g for 40 min at room temperature. Four portions of 10 µL from the filtrates were counted for radioactivity in a γ-counter. The amount of plasma-bound radioligand was calculated as the fraction between the radioactivity measured in the filtrate portions relative to the corresponding loading solution (set to 100%).

[3] = system: 4T1-Luc2 cells; assay: In vitro dead/alive cell binding assay (fluorescence and γ-counting); format: cell-based, mouse; details: 100 nM, EtOH-killed or alive 4T1-Luc2 cells; for dead/alive cell binding, fluorescence signal: non-radioactive precursors, 30 min, 37 °C, 800 nm; for dead/alive cell binding, radioactivity: indium-111 labeled, 2.5 MBq/nmol, γ-counting
Protocol: The 4T1-Luc2 cells were cultured in RPMI-1640 medium containing 10% fetal bovine, penicillin (100 U/mL), and streptomycin ([…]) 37 °C under a humidified atmosphere with 5% CO2. The cells were seeded in 24 well plates (1 × 10^5 cells per well). The next day, the cells were killed with EtOH (70%, 50 μL) or kept alive and incubated for 30 min at 37 °C with 100 nM of the NACAs in culturing medium. The plate was then imaged on an Odyssey (Li-Cor, 800 nm laser intensity 5.0).
Similarly, these killed and alive cells were incubated with the indium-111 labeled NACAs (100 nM, 2.5 MBq/nmol) in culturing medium. The cells were washed with PBS and collected with NaOH (1.0 M) for γ-counting. These experiments were performed as triplicates.

[4] = system: 4T1-Luc2 cells; assay: Fluorescence microscopy of dead and alive cells; format: cell-based, mouse; details: unlabeled, 100 nM, 30 min, 37 °C
Protocol: The 4T1-Luc2 cells were seeded on 10 mm diameter coverslips in 24 well plates (10^5 cells per well). The cells were kept alive or killed with 50 µL EtOH (70%) and incubated in culturing medium with or without unlabeled 3 (100 nM) for 30 min at 37 °C. The cells were gently washed with PBS three times and incubated with Calcein-AM (CAM, 2 µM) and propidium iodide (PI, 4 µM) in PBS for 30 min at 37 °C [24]. Then, the cells were fixated with PFA (4% in PBS, 10 min, RT) and nuclei were stained with DAPI (Sigma-Aldrich, 1:1000 in PBS, 5 min). After final washing with PBS, the coverslips were removed from the well plate and mounted on a microscope slide for fluorescence microscope imaging at 20× magnification.

[5] = system: EMT6-Luc2 tumors; assay: Tumor uptake in EMT6-Luc2 tumor-bearing mice; format: in vivo, mouse; details: untreated, 1 h p.i., ±SEM
Protocol: The quadruple modality imaging procedure is illustrated in Figure S21. The tumor-bearing mice were injected with [^111In]3 (20 MBq, 2 nmol) in 200 µL PBS into the tail vein. The following day, the mice fasted for four hours before they were injected with [^18F]FDG (10 MBq, 200 µL) in PBS. At 24 h p.i. of [^111In]3 and 1 h p.i. of [^18F]FDG, FLI imaging was performed with a 730 nm excitation and 760 nm emission filter for 400 ms with 4 × 4 binning. Then, the mice received an intraperitoneal injection of D-luciferin (150 mg/kg) maintaining the position of the mice in the bed unaltered. During the onset of the bioluminescence signal, PET/SPECT imaging was performed of the tumors with a 2 cm axial field of view over a total scan time of 30 min, followed by a 2 min full-body CT. Finally, BLI imaging was performed with an open filter for 400 ms with 4 × 4 binning. Imaging was performed under isoflurane anesthesia whilst maintaining the body temperature constant. […]
After the final imaging experiments, the mice were sacrificed by cervical dislocation, tumors and organs were collected, weighted, and activity was accurately quantified by γ-counting to determine radioactivity uptake in the percentage of injected dose per gram (%ID/g). […] The sections were stored at −20 °C for the radioactivity to decay, before 800 nm fluorescence imaging and histochemical dead cell staining.

[6] = system: MCF7-Luc2 tumors; assay: Tumor uptake in doxorubicin- or saline-treated MCF7-Luc2 tumor-bearing mice; format: in vivo, mouse; details: 1 h p.i., ±SEM
Protocol: The quadruple modality imaging procedure is illustrated in Figure S21. The tumor-bearing mice were injected with [^111In]3 (20 MBq, 2 nmol) in 200 µL PBS into the tail vein. The following day, the mice fasted for four hours before they were injected with [^18F]FDG (10 MBq, 200 µL) in PBS. At 24 h p.i. of [^111In]3 and 1 h p.i. of [^18F]FDG, FLI imaging was performed with a 730 nm excitation and 760 nm emission filter for 400 ms with 4 × 4 binning. Then, the mice received an intraperitoneal injection of D-luciferin (150 mg/kg) maintaining the position of the mice in the bed unaltered. During the onset of the bioluminescence signal, PET/SPECT imaging was performed of the tumors with a 2 cm axial field of view over a total scan time of 30 min, followed by a 2 min full-body CT. Finally, BLI imaging was performed with an open filter for 400 ms with 4 × 4 binning. Imaging was performed under isoflurane anesthesia whilst maintaining the body temperature constant.
Six mice were inoculated bilaterally with MCF7-Luc2 cells (3.0 × 10^6), suspended in 30 µL PBS:Matrigel (1:1; v/v). On days 14, 16, and 18 after inoculation, the tumor-bearing mice received either doxorubicin (5 mg/kg, Janssen Pharmaceuticals, Beerse, Belgium) or a saline solution via i.v. injection. On days 21 and 22 after inoculation, the mice underwent the FLI, BLI, and PET/SPECT/CT imaging procedure (vide supra).
After the final imaging experiments, the mice were sacrificed by cervical dislocation, tumors and organs were collected, weighted, and activity was accurately quantified by γ-counting to determine radioactivity uptake in the percentage of injected dose per gram (%ID/g). After γ-counting, the tumors were frozen in liquid nitrogen and stored at −80 °C overnight. Adjacent cryosections (10 µm) were prepared of the tumor centers for autoradiography. The sections were stored at −20 °C for the radioactivity to decay, before 800 nm fluorescence imaging and histochemical dead cell staining.

[7] = system: 4T1-Luc2 tumors; set-up: method as in PMID 32514888; details: comparison value; cited from earlier work
[8] = In vivo stability (radio-HPLC of urine 1 h after injection); set-up: species or system mouse; details: mice, i.v., 1 h p.i.
From the text: After an hour, the mice were sacrificed by cervical dislocation and blood and urine were collected, which were frozen in liquid nitrogen directly after extraction. […] The supernatant was collected and analyzed by radio-HPLC (Method-D).

Structure (SMILES)	LogD [1]	Protein Binding [2] [%]	dead/alive cell binding, fluorescence signal [3]	also measured
CC1(C)C(=CC=C2CCCC(C=CC3=[N+](CCCCCC(=O)NCCOCCOCCOCCOCCNC(=O)CN4CCN(CC(=O)O)CCN(CC(=O)O)CCN(CC(=O)O)CC4)c4ccc(S(=O)(=O)O)cc4C3(C)C)=C2Oc2ccc(S(=O)(=O)O)cc2)N(CCCCS(=O)(=O)O)c2ccc(S(=O)(=O)O)cc21 [Compound 1]	−3.58 ± 0.07	70 ± 0.9	specifically bound to dead cells and not to live cells	–
CC1(C)C(=CC=C2CCCC(C=CC3=[N+](CCCCCC(=O)NCCCCC(NC(=O)C(CCCCNC(=O)CCCc4ccc(I)cc4)NC(=O)CN4CCN(CC(=O)O)CCN(CC(=O)O)CCN(CC(=O)O)CC4)C(N)=O)c4ccc(S(=O)(=O)O)cc4C3(C)C)=C2Oc2ccc(S(=O)(=O)O)cc2)N(CCCCS(=O)(=O)O)c2ccc(S(=O)(=O)O)cc21 (stereo not drawn) [Compound 2]	−2.47 ± 0.01	95 ± 0.1	considerably stronger binding to the dead cells than compound 1	–
CC1(C)C(/C=C/C2=C(Oc3ccc(S(=O)(=O)O)cc3)C(=C/C=C3\N(CCCCS(=O)(=O)O)c4ccc(S(=O)(=O)O)cc4C3(C)C)/CCC2)=[N+](CCCCCC(=O)NCCCC[C@@H](NC(=O)CCCc2ccc(I)cc2)C(=O)NCc2ccc(CNC(=O)CN3CCN(CC(=O)O)CCN(CC(=O)O)CCN(CC(=O)O)CC3)cc2)c2ccc(S(=O)(=O)O)cc21 [Compound 3]	−2.73 ± 0.14	94 ± 0.2	considerably stronger binding to the dead cells than compound 1	NIR-fluorescence binding to dead and alive cells (microscopy) [4]: distinct NIR-fluorescent signal was observed from dead cells; also recorded: binds to dead cells and not to alive cells
OC[C@H]1OC(O)[C@H]([18F])[C@@H](O)[C@@H]1O (stereo partly drawn) [[^18F]FDG, reference compound]	–	–	–	tumor uptake of [18F]FDG [5]: 4.13 ± 0.58 %ID/g; tumor uptake of [18F]FDG ([6]; after doxorubicin treatment (5 mg/kg i.v., 3 injections)): 1.79 ± 0.11 %ID/g; tumor uptake of [18F]FDG ([6]; after saline treatment (control)): 3.02 ± 0.51 %ID/g
CC1(C)C(=CC=C2CCCC(C=CC3=[N+](CCCCCC(=O)NCCOCCOCCOCCOCCNC(=O)CN4CCN(CC(=O)[O-])CCN(CC(=O)[O-])CCN(CC(=O)[O-])CC4)c4ccc(S(=O)(=O)O)cc4C3(C)C)=C2Oc2ccc(S(=O)(=O)O)cc2)N(CCCCS(=O)(=O)O)c2ccc(S(=O)(=O)O)cc21.[111In+3] [[^111In]1, [^111In]In-DOTA-PEG4-IRDye800CW]	–	70	–	radioactive tumor uptake in the SPECT images [7]: 0.26 ± 0.05 %ID/mL
CC1(C)C(=CC=C2CCCC(C=CC3=[N+](CCCCCC(=O)NCCCC[C@H](NC(=O)[C@H](CCCCNC(=O)CCCc4ccc(I)cc4)NC(=O)CN4CCN(CC(=O)[O-])CCN(CC(=O)[O-])CCN(CC(=O)[O-])CC4)C(N)=O)c4ccc(S(=O)(=O)O)cc4C3(C)C)=C2Oc2ccc(S(=O)(=O)O)cc2)N(CCCCS(=O)(=O)O)c2ccc(S(=O)(=O)O)cc21.[111In+3] [[^111In]2]	–	–	–	in vivo stability [8]: decomposed after an hour; dead/alive cell binding, radioactivity [3]: increased as compared to [^111In]1
NCCCC[C@H](NC(=O)CCCc1ccc(I)cc1)C(=O)NCc1ccc(CNC(=O)CN2CCN(CC(=O)[O-])CCN(CC(=O)[O-])CCN(CC(=O)[O-])CC2)cc1.[111In+3] [[^111In]8]	–	–	–	dead/alive cell binding, radioactivity [3]: did not show considerable dead cell binding
